In patent publication US20210386709A1, “COMPOSITIONS AND METHODS FOR SUPPRESSING MSUT2” (United States Government As Represented By The Department …, priority 2020, published 2021):
Several values for one entry are separate records, joined by “and”; a condition that tells them apart may be missing. Equal entries are not always repeated.

How the values were obtained:
[1] = target: T1, MSUT2 ZF (Homo sapiens, UniProt Q6PJT7); experiment: Fluorescence polarization assay of FAM-poly(A) RNA:MSUT2 ZF binding; settings: by FP assay; read-out: Ki for MSUT2 by FP assay
T1 construct: Targeted construct consisted of the c-terminal end (dark blue and amino acids 601-736) of MSUT2; made in house; host or cells: E. coli BL21 (DE3)
T1 sequence (Q6PJT7 601-736): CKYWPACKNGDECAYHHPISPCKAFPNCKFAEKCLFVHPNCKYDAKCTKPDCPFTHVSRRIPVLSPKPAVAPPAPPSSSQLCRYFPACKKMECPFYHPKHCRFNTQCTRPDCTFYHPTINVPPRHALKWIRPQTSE
Description: Fluorescence Polarization Assay. […] 2 μL of compound was transferred for a final concentration of 10 μM. […] Fluorescence polarization was calculated by first subtracting background from a buffer-only control well and then using the equation
Results and Discussion. A high-throughput fluorescence polarization assay for inhibition of poly(A):MSUT2 RNA interaction. […] In order to screen potential inhibitors of MSUT2 RBP and RNA by FP, fluorescent FAM (fluorescein amidite)-labeled poly(A)15 RNA (FAM-RNA) and recombinant MSUT2 ZF (zinc finger) protein expressing constructs were generated (FIG. 7a). […] Inhibition of the interaction results in unbound FAM-RNA tumbling at a relatively rapid rate and emitting non-polarized light (FIG. 7b).
To determine the concentrations of both MSUT2 ZF protein and FAM-RNA probe useful in the methods described herein, a two dimensional titration of protein and RNA concentrations in 96-well format was performed. […] Next, the binding constant between MSUT2 ZF and FAM-RNA was determined by holding FAM-RNA constant at 10 nM while increasing MSUT2 ZF concentration.
Identification and validation of MSUT2 inhibitory compounds from NIHCC library. […] IC50 of each of the previous 8 compounds was determined for PABPN1 using fluorescence polarization (FIG. 11), and a specificity ratio determined (Table 3). An Alpha Screen (AS) assay was developed as an orthogonal screen. Briefly, in this screen, biotinylated RNA binds streptavidin-coated donor beads, while GST-MSUT2 ZF binds glutathione-coated acceptor beads. When donor beads and acceptor beads are brought within close proximity of one another, laser excitation leads to fluorophore emission of the acceptor bead via excited singlet oxygen activating chemiluminescers in the acceptor beads. […] Toxicity of these compounds in a HEK cell model was determined using a standard Promega Cell Titer Glo assay.
Fluorescence Polarization Assay. […] of stock compound was transferred yielding 10 μM final concentration. […] Fluorescence polarization was calculated by first subtracting background from a buffer-only control well and then using the equation

[2] = target: T2, PABPN1 (Homo sapiens, UniProt Q86U42); experiment: Alpha Screen selectivity screen against PABPN1; assay type: binding; settings: Alpha Screen dose response IC50s
T2 construct: made in house; host or cells: E. coli BL21 (DE3)
T2 sequence (Q86U42 1-306): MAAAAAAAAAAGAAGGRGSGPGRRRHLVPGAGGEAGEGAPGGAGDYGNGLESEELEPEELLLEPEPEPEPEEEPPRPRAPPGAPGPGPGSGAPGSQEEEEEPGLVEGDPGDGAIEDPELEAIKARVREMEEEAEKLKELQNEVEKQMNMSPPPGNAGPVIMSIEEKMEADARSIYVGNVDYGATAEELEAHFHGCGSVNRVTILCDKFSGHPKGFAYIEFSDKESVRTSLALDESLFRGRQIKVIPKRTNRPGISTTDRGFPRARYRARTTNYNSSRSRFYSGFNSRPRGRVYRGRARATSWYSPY
Description: FIGS. 6A-B show the Selectivity screen. Compounds were screened by Alpha Screen (FIG. 6A) for MSUT2 and PABPN1 (FIG. 6B) dose response. IC50s indicated.
Alpha Screen Assay. Samples were set up in 384 well Perkin Elmer white opaque-bottom plates (PE06). A total reaction volume of […] was plated in 384 format using a CyBio Well Vario (6 μL of donor beads (10 μg/mL), 3 μL biotinylated RNA (250 nM), 3 μL GST-MSUT2 protein (250 nM) per well). 50 nL of compounds were transferred to wells via CyBio Vario equipped with Pin Tool. This mixture was incubated at room temperature for 30 minutes away from light. Next 3 μL of acceptor beads (1.25 μg/mL) was added. Plates were incubated at room temperature away from light for 60 minutes and subsequently read on a Perkin Elmer EnVision multimode microplate reader equipped with stackers using a standard 384-well Alpha Assay software protocol.
Screening of the Spectrum Collection. […] The hit window consisted of those compounds 7 standard deviations from the mean (FIG. 2a). In follow up dose-response testing, 11 of the 20 initial hits were validated and moved forward to further validation studies (FIG. 3). Unbound fluorescein-labeled RNA rapidly rotates in solution compared to MSUT2-bound. […] These four compounds were tested for an effect on cell viability using a HEK-cell model. […]

[3] = target: T3, Soluble epoxide hydrolase (gene EPXH2) (Homo sapiens, UniProt P34913); settings: read-out: Ki (nM) for Known Target; cited from earlier work
T3 sequence (P34913 1-555): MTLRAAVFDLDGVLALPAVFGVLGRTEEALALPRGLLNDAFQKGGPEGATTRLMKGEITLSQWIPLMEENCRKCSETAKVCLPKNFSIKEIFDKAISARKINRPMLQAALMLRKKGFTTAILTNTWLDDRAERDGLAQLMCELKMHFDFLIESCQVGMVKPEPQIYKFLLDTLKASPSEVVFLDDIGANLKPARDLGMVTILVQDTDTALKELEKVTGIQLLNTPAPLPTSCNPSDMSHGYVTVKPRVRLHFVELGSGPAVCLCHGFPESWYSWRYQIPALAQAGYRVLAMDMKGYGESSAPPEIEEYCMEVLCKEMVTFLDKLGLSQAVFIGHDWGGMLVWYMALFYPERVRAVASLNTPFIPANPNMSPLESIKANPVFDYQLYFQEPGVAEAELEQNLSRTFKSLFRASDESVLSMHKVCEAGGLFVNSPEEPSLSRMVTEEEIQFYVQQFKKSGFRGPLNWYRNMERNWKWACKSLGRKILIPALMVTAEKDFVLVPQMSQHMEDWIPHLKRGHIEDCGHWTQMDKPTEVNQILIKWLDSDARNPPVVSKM

[4] = test system: HEK-293 cells; experiment: Cell viability, Promega Cell Titer Glo
Description: Cell culture and cytotoxicity screen. […] Cell viability was assessed as using Promega Cell Titer Glo (Promega G7570) per manufacturer protocol. Briefly, HEK-293 cells were grown to 70% confluence in a 96 well plate were treated with indicated concentrations of compounds and incubated for 72 hours at 37° C. Plates were read for luminescence on Perkin Elmer Enspire Alpha.
Cell viability was assessed. Briefly, HEK-293 cells grown to 70% confluence in a 96 well dish were treated with varying concentrations of compound (final concentration of 2% DMSO) and incubated for 72 hours. Next, Promega Cell Titer Glo assay was used to assess viability per manufacturer instructions (Promega G7570).

Ki [1]: 1020 nM | fold selectivity for MSUT2 over PABPN1 [2]: 5 fold and 4.6 fold
SMILES: O=c1c2ccccc2[se]n1-c1ccccc1 [Ebselen]
Ki [3]: 0.55 nM | toxicity (effect on cell viability) ([4]; HEK-293, 72 hours, indicated concentrations): did not show toxicity in a dose-dependent manner | reduction of cell viability ([4]; HEK-293, at the tested doses, compared to DMSO control): roughly 40%
